From PMC5218480 (PLoS ONE, 2017) come the findings set out here.

The assay has as its system MV-4-11 cells. Put plainly: Gene expression microarray analysis (Affymetrix PrimeView) and GSEA. The format is cell-based, human. The arrangement: RFU PODN (11730768_x_at) / Fold change /veh PODN (11730768_x_at) / RFU LINC00158 (11744669_a_at) / Fold change /veh LINC00158 (11744669_a_at) / RFU DUSP10 (11751237_a_at) / Fold change /veh DUSP10 (11751237_a_at) / RFU ID3 (11757404_x_at) / Fold change /veh ID3 (11757404_x_at) / RFU PLEKHG5 (11737974_s_at) / Fold change /veh PLEKHG5 (11737974_s_at) / RFU LRRC4B (11730491_at) / Fold change /veh LRRC4B (11730491_at) / RFU GIMAP4 (11747438_a_at) / Fold change /veh GIMAP4 (11747438_a_at) / RFU KRT8 (11758183_x_at) / Fold change /veh KRT8 (11758183_x_at) / RFU CNN1 (11734310_a_at) / Fold change /veh CNN1 (11734310_a_at) / RFU VPS37D (11726825_at) / Fold change /veh VPS37D (11726825_at) / RFU C10orf10 (11716522_x_at) / Fold change /veh C10orf10 (11716522_x_at) / RFU KIR2DL2 /// KIR2DL4 /// KIR2DL5A /// KIR2DL5B /// KIR2DS1 /// KIR2DS2 /// KIR2DS3 /// KIR2DS4 /// KIR3DL3 /// KIR3DL3 /// KIR3DS1 (11738374_at) / Fold change /veh KIR2DL2 /// KIR2DL4 /// KIR2DL5A /// KIR2DL5B /// KIR2DS1 /// KIR2DS2 /// KIR2DS3 /// KIR2DS4 /// KIR3DL3 /// KIR3DL3 /// KIR3DS1 (11738374_at) / RFU C1QL1 (11718748_at) / Fold change /veh C1QL1 (11718748_at) / RFU TMPRSS4 (11747572_a_at) / Fold change /veh TMPRSS4 (11747572_a_at) / RFU HAMP (11756126_x_at) / Fold change /veh HAMP (11756126_x_at) / RFU RNFT2 (11725882_a_at) / Fold change /veh RNFT2 (11725882_a_at) / RFU NR4A2 (11747474_a_at) / Fold change /veh NR4A2 (11747474_a_at) / RFU ABCC12 (11746883_a_at) / Fold change /veh ABCC12 (11746883_a_at) / RFU TMEM136 (11760407_x_at) / Fold change /veh TMEM136 (11760407_x_at) / RFU CLDN22 /// WWC2 (11732394_at) / Fold change /veh CLDN22 /// WWC2 (11732394_at) / RFU HLA-DPB1 (11760878_x_at) / Fold change /veh HLA-DPB1 (11760878_x_at) / RFU SPINT1 (11716480_a_at) / Fold change /veh SPINT1 (11716480_a_at) / RFU GAP43 (11754022_s_at) / Fold change /veh GAP43 (11754022_s_at) / RFU A4GNT (11735810_at) / Fold change /veh A4GNT (11735810_at) / RFU PRB3 (11715151_x_at) / Fold change /veh PRB3 (11715151_x_at) / RFU TUBB4B (11761932_at) / Fold change /veh TUBB4B (11761932_at) / RFU CAPN14 (11732068_a_at) / Fold change /veh CAPN14 (11732068_a_at) / RFU TMCC2 (11721928_a_at) / Fold change /veh TMCC2 (11721928_a_at) / RFU IRGQ (11745062_a_at) / Fold change /veh IRGQ (11745062_a_at) / RFU FAM174B (11720279_a_at) / Fold change /veh FAM174B (11720279_a_at) / RFU TMPRSS4 (11748680_a_at) / Fold change /veh TMPRSS4 (11748680_a_at) / RFU FAM212B (11763350_a_at) / Fold change /veh FAM212B (11763350_a_at) / RFU PLEKHG5 (11743358_a_at) / Fold change /veh PLEKHG5 (11743358_a_at) / RFU ZSCAN30 (11745921_a_at) / Fold change /veh ZSCAN30 (11745921_a_at) / RFU CMKLR1 (11741424_a_at) / Fold change /veh CMKLR1 (11741424_a_at) / RFU LOC101060620 /// MAPK8IP1 (11723275_at) / Fold change /veh LOC101060620 /// MAPK8IP1 (11723275_at) / RFU SPTSSB (11747773_x_at) / Fold change /veh SPTSSB (11747773_x_at) / RFU PRSS12 (11739890_at) / Fold change /veh PRSS12 (11739890_at) / RFU BIN1 (11741810_x_at) / Fold change /veh BIN1 (11741810_x_at) / RFU WNT11 (11732464_a_at) / Fold change /veh WNT11 (11732464_a_at) / RFU C10orf10 (11716521_a_at) / Fold change /veh C10orf10 (11716521_a_at) / RFU C5orf56 (11738089_at) / Fold change /veh C5orf56 (11738089_at) / RFU CYB561 (11721691_x_at) / Fold change /veh CYB561 (11721691_x_at) / RFU ANKRD19P (11752326_a_at) / Fold change /veh ANKRD19P (11752326_a_at) / RFU OR2T12 /// OR2T33 /// OR2T8 (11738714_s_at) / Fold change /veh OR2T12 /// OR2T33 /// OR2T8 (11738714_s_at) / RFU VCAN (11748164_a_at) / Fold change /veh VCAN (11748164_a_at) / RFU JSRP1 (11732532_at) / Fold change /veh JSRP1 (11732532_at) / RFU KRTAP10-11 (11738290_x_at) / Fold change /veh KRTAP10-11 (11738290_x_at) / RFU MYO3A (11730013_a_at) / Fold change /veh MYO3A (11730013_a_at) / RFU EBF3 (11725865_a_at) / Fold change /veh EBF3 (11725865_a_at) / RFU CAMK2N1 (11719241_x_at) / Fold change /veh CAMK2N1 (11719241_x_at) / RFU C5orf56 (11738088_a_at) / Fold change /veh C5orf56 (11738088_a_at) / RFU OLFML3 (11715873_a_at) / Fold change /veh OLFML3 (11715873_a_at) / RFU LOC100653217 /// NTM (11731650_a_at) / Fold change /veh LOC100653217 /// NTM (11731650_a_at) / RFU MAPK11 (11762145_a_at) / Fold change /veh MAPK11 (11762145_a_at) / RFU FIZ1 (11724087_x_at) / Fold change /veh FIZ1 (11724087_x_at) / RFU OASL (11726364_x_at) / Fold change /veh OASL (11726364_x_at) / RFU SOX15 (11748057_x_at) / Fold change /veh SOX15 (11748057_x_at) / RFU CD79A (11719716_a_at) / Fold change /veh CD79A (11719716_a_at) / RFU HIST1H1D (11736915_at) / Fold change /veh HIST1H1D (11736915_at) / RFU CASKIN2 (11723855_a_at) / Fold change /veh CASKIN2 (11723855_a_at) / RFU LOC730098 (11760151_x_at) / Fold change /veh LOC730098 (11760151_x_at) / RFU OR4N2 (11742367_at) / Fold change /veh OR4N2 (11742367_at) / RFU PRRT2 (11749266_a_at) / Fold change /veh PRRT2 (11749266_a_at) / RFU SNX32 (11753110_a_at) / Fold change /veh SNX32 (11753110_a_at) / RFU CDHR5 (11726645_a_at) / Fold change /veh CDHR5 (11726645_a_at) / RFU RCAN1 (11760418_a_at) / Fold change /veh RCAN1 (11760418_a_at) / RFU FAM167A (11723789_a_at) / Fold change /veh FAM167A (11723789_a_at) / RFU FAM26E (11764081_at) / Fold change /veh FAM26E (11764081_at) / RFU ISYNA1 (11749810_s_at) / Fold change /veh ISYNA1 (11749810_s_at) / RFU ACY1 (11761880_at) / Fold change /veh ACY1 (11761880_at) / RFU 11764098_at / Fold change /veh 11764098_at / RFU SAMD14 (11745864_x_at) / Fold change /veh SAMD14 (11745864_x_at) / RFU NPB (11741838_a_at) / Fold change /veh NPB (11741838_a_at) / RFU TMPRSS6 (11731388_a_at) / Fold change /veh TMPRSS6 (11731388_a_at) / RFU KRTAP10-2 (11738614_at) / Fold change /veh KRTAP10-2 (11738614_at) / RFU ARHGAP8 /// PRR5-ARHGAP8 (11727945_x_at) / Fold change /veh ARHGAP8 /// PRR5-ARHGAP8 (11727945_x_at) / RFU KRTAP5-7 /// NADSYN1 (11734609_at) / Fold change /veh KRTAP5-7 /// NADSYN1 (11734609_at) / RFU RASL12 (11751679_a_at) / Fold change /veh RASL12 (11751679_a_at) / RFU CDKN2B (11736163_a_at) / Fold change /veh CDKN2B (11736163_a_at) / RFU PRF1 (11729649_at) / Fold change /veh PRF1 (11729649_at) / RFU, ZNF638 /// ZNF638-IT1 / Fold change vs veh, ZNF638 /// ZNF638-IT1 / RFU, PANK3 / Fold change vs veh, PANK3 / RFU, SH3YL1 / Fold change vs veh, SH3YL1 / RFU, ZEB2 / Fold change vs veh, ZEB2 / RFU, NRIP1 / Fold change vs veh, NRIP1 / RFU, PTTG1IP / Fold change vs veh, PTTG1IP / RFU, CAPN2 / Fold change vs veh, CAPN2 / RFU, MED14 / Fold change vs veh, MED14 / RFU, SNORA58 / Fold change vs veh, SNORA58 / RFU, C1orf63 / Fold change vs veh, C1orf63 / RFU, LRRFIP1 / Fold change vs veh, LRRFIP1 / RFU, NDUFAF7 / Fold change vs veh, NDUFAF7 / RFU, SLC12A2 / Fold change vs veh, SLC12A2 / RFU, IBTK / Fold change vs veh, IBTK / RFU, ESF1 / Fold change vs veh, ESF1 / Fold change vs veh, TMEM50B / RFU, TAOK1 / Fold change vs veh, TAOK1 / RFU, ACBD3 / Fold change vs veh, ACBD3 / RFU, TMA16 / Fold change vs veh, TMA16 / RFU, RWDD3 / Fold change vs veh, RWDD3 / RFU, BCAT1 / Fold change vs veh, BCAT1 / RFU, EDEM3 / Fold change vs veh, EDEM3 / RFU, TMEM33 / Fold change vs veh, TMEM33 / RFU, WDR75 / Fold change vs veh, WDR75 / RFU, AHCTF1 / Fold change vs veh, AHCTF1 / RFU, TFRC / Fold change vs veh, TFRC / RFU, ZDHHC17 / Fold change vs veh, ZDHHC17 / RFU, NOM1 / Fold change vs veh, NOM1 / RFU, ARL8B / Fold change vs veh, ARL8B / RFU, ZBTB11 / Fold change vs veh, ZBTB11 / RFU, TAMM41 / Fold change vs veh, TAMM41 / RFU, KIAA1704 /// LOC100996395 / Fold change vs veh, KIAA1704 /// LOC100996395 / RFU, ING1 / Fold change vs veh, ING1 / RFU, TRMT61B / Fold change vs veh, TRMT61B / RFU, FUBP3 / Fold change vs veh, FUBP3 / RFU, TP53 / Fold change vs veh, TP53 / RFU, TNKS2 / Fold change vs veh, TNKS2 / RFU, ZFP14 / Fold change vs veh, ZFP14 / RFU, ACTR2 / Fold change vs veh, ACTR2 / RFU, PPP3R1 / Fold change vs veh, PPP3R1 / RFU, PIK3R1 / Fold change vs veh, PIK3R1 / RFU, HNRNPA1 / Fold change vs veh, HNRNPA1 / RFU, RNF170 / Fold change vs veh, RNF170 / RFU, ZNF28 / Fold change vs veh, ZNF28 / RFU, RNGTT / Fold change vs veh, RNGTT / RFU, OGT / Fold change vs veh, OGT / RFU, BRD1 / Fold change vs veh, BRD1 / RFU, MARS / Fold change vs veh, MARS / RFU, ZNF655 / Fold change vs veh, ZNF655 / RFU, FAHD1 / Fold change vs veh, FAHD1 / RFU, BDP1 / Fold change vs veh, BDP1 / RFU, LRRCC1 / Fold change vs veh, LRRCC1 / RFU, ARID1A / Fold change vs veh, ARID1A / RFU, ZNF146 / Fold change vs veh, ZNF146 / RFU, ZNF330 / Fold change vs veh, ZNF330 / RFU, GPN3 / Fold change vs veh, GPN3 / RFU, C9orf123 / Fold change vs veh, C9orf123 / RFU, N4BP2L2 / Fold change vs veh, N4BP2L2 / RFU, ARFIP1 / Fold change vs veh, ARFIP1 / RFU, FAM179B / Fold change vs veh, FAM179B / RFU, BCL10 / Fold change vs veh, BCL10 / RFU, UHRF1BP1L / Fold change vs veh, UHRF1BP1L / RFU, BET1 / Fold change vs veh, BET1 / RFU, CNOT2 / Fold change vs veh, CNOT2 / RFU, ZNF268 / Fold change vs veh, ZNF268 / Fold change vs veh, ZNF507 / RFU, DGCR2 / Fold change vs veh, DGCR2 / RFU, WDSUB1 / Fold change vs veh, WDSUB1 / Fold change vs veh, HSP90B1 /// MIR3652 / RFU, ADSS / Fold change vs veh, ADSS / RFU, GK / Fold change vs veh, GK / RFU, ZNF148 / Fold change vs veh, ZNF148 / RFU, TAF9 / Fold change vs veh, TAF9 / RFU, SLC1A5 / Fold change vs veh, SLC1A5 / RFU, SLMO2 / Fold change vs veh, SLMO2 / RFU, ABCC4 / Fold change vs veh, ABCC4 / RFU, LOC101060439 /// RAP1B / Fold change vs veh, LOC101060439 /// RAP1B / RFU, RFX7 / Fold change vs veh, RFX7 / RFU, GTPBP10 / Fold change vs veh, GTPBP10 / RFU, CNEP1R1 / Fold change vs veh, CNEP1R1 / RFU, BIVM-ERCC5 /// ERCC5 / Fold change vs veh, BIVM-ERCC5 /// ERCC5 / RFU, ILF3 / Fold change vs veh, ILF3 / RFU 11762660_at / Fold change /veh 11762660_at / RFU VCAN (11757783_s_at) / Fold change /veh VCAN (11757783_s_at) / RFU DDX43 (11728927_at) / Fold change /veh DDX43 (11728927_at) / RFU KRT8 (11758188_x_at) / Fold change /veh KRT8 (11758188_x_at) / RFU NKD1 (11759106_at) / Fold change /veh NKD1 (11759106_at) / RFU SRD5A1 (11742802_a_at) / Fold change /veh SRD5A1 (11742802_a_at) / RFU TPSAB1 /// TPSB2 (11721975_s_at) / Fold change /veh TPSAB1 /// TPSB2 (11721975_s_at) / RFU GSTM3 (11746129_a_at) / Fold change /veh GSTM3 (11746129_a_at) / RFU IL23R (11737362_x_at) / Fold change /veh IL23R (11737362_x_at) / RFU TMEM51 (11727254_a_at) / Fold change /veh TMEM51 (11727254_a_at) / RFU PIWIL2 (11732686_x_at) / Fold change /veh PIWIL2 (11732686_x_at) / RFU ORM1 (11744905_x_at) / Fold change /veh ORM1 (11744905_x_at) / RFU CCDC152 (11743942_at) / Fold change /veh CCDC152 (11743942_at) / RFU ECM1 (11717891_a_at) / Fold change /veh ECM1 (11717891_a_at) / RFU IL23R (11748794_a_at) / Fold change /veh IL23R (11748794_a_at) / RFU TNFAIP8L3 (11732012_x_at) / Fold change /veh TNFAIP8L3 (11732012_x_at) / RFU MBOAT4 (11741988_at) / Fold change /veh MBOAT4 (11741988_at) / RFU 11764193_at / Fold change /veh 11764193_at / RFU TMEM53 (11763286_at) / Fold change /veh TMEM53 (11763286_at) / RFU MAGEB2 (11727129_at) / Fold change /veh MAGEB2 (11727129_at) / RFU TMEM200A (11744735_a_at) / Fold change /veh TMEM200A (11744735_a_at) / RFU CCDC152 (11751479_a_at) / Fold change /veh CCDC152 (11751479_a_at) / RFU FAM211A (11726209_a_at) / Fold change /veh FAM211A (11726209_a_at) / RFU RGS16 (11746705_a_at) / Fold change /veh RGS16 (11746705_a_at) / RFU VCAN (11755009_s_at) / Fold change /veh VCAN (11755009_s_at) / RFU RHOB (11743442_s_at) / Fold change /veh RHOB (11743442_s_at) / RFU RGS16 (11720943_a_at) / Fold change /veh RGS16 (11720943_a_at) / RFU RGS16 (11720944_at) / Fold change /veh RGS16 (11720944_at) / RFU, VPS4B / Fold change vs veh, VPS4B / RFU, CREB1 / Fold change vs veh, CREB1 / RFU, DNAJC13 / Fold change vs veh, DNAJC13 / RFU, GNAQ / Fold change vs veh, GNAQ / RFU, CDK5R1 / Fold change vs veh, CDK5R1 / RFU, ZRANB3 / Fold change vs veh, ZRANB3 / RFU, CUL4A / Fold change vs veh, CUL4A / RFU, CCNY / Fold change vs veh, CCNY / RFU, UFL1 / Fold change vs veh, UFL1 / RFU, COG3 / Fold change vs veh, COG3 / RFU, DIAPH2 / Fold change vs veh, DIAPH2 / RFU, SKA2 / Fold change vs veh, SKA2 / RFU, AFF3 / Fold change vs veh, AFF3 / RFU, LMF1 / Fold change vs veh, LMF1 / RFU, IPO11 / Fold change vs veh, IPO11 / RFU, DFFB / Fold change vs veh, DFFB / RFU, FOXP1 / Fold change vs veh, FOXP1 / RFU, CARD8 / Fold change vs veh, CARD8 / RFU, STRN3 / Fold change vs veh, STRN3 / RFU, ADK / Fold change vs veh, ADK / RFU, RASSF2 / Fold change vs veh, RASSF2 / RFU, WIPF1 / Fold change vs veh, WIPF1 / RFU, LARP1B / Fold change vs veh, LARP1B / RFU, RASA1 / Fold change vs veh, RASA1 / RFU, RB1 / Fold change vs veh, RB1 / RFU, PPFIA1 / Fold change vs veh, PPFIA1 / RFU, MAT2A / Fold change vs veh, MAT2A / RFU, CCT5 / Fold change vs veh, CCT5 / RFU, WDR92 / Fold change vs veh, WDR92 / RFU, CUX1 / Fold change vs veh, CUX1 / RFU, TTC7A / Fold change vs veh, TTC7A / RFU, TMEM135 / Fold change vs veh, TMEM135 / RFU, DEPTOR / Fold change vs veh, DEPTOR / RFU, CPM / Fold change vs veh, CPM / RFU, DNAJB6 / Fold change vs veh, DNAJB6 / RFU, CACNA2D3 / Fold change vs veh, CACNA2D3 / RFU, DTX4 / Fold change vs veh, DTX4 / RFU, TFCP2 / Fold change vs veh, TFCP2 / RFU, GMCL1 /// GMCL1P1 / Fold change vs veh, GMCL1 /// GMCL1P1 / RFU, AEBP2 / Fold change vs veh, AEBP2 / RFU, SNHG1 /// SNORD22 /// SNORD25 /// SNORD26 /// SNORD27 /// SNORD28 /// SNORD29 /// SNORD31 / Fold change vs veh, SNHG1 /// SNORD22 /// SNORD25 /// SNORD26 /// SNORD27 /// SNORD28 /// SNORD29 /// SNORD31 / Fold change (Aza/veh), C12orf56 (ProbeSet 11735607_a_at) / Fold change (ACY-1035/veh), C12orf56 (ProbeSet 11735607_a_at) / Fold change (Aza/veh), FGFR1OP (ProbeSet 11751329_s_at) / Fold change (ACY-1035/veh), FGFR1OP (ProbeSet 11751329_s_at) / Fold change (Aza/veh), VPS36 (ProbeSet 11739960_a_at) / Fold change (ACY-1035/veh), VPS36 (ProbeSet 11739960_a_at) / RFU SYPL1 (11715823_x_at) / Fold change /veh SYPL1 (11715823_x_at) / RFU IGFBP7 (11715501_s_at) / Fold change /veh IGFBP7 (11715501_s_at) / RFU REEP3 (11722064_at) / Fold change /veh REEP3 (11722064_at) / RFU IGLL1 (11728026_x_at) / Fold change /veh IGLL1 (11728026_x_at): dose or concentration left out as unconfirmed. The settings on record: MV-4-11 cells, 48 hours.

The structures appear in SMILES notation.

`Nc1ccc(-c2cccs2)cc1NC(=O)c1ccc2c(c1)cc(C1CC1)n2CCN1CCOCC1` [ACY-1035]: the “Fold change /veh FAM211A (11726209_a_at)” value worked out at 1.04.
